Values of other authors as cited in publication PMC12443862, “The second life of Citrus bergamia: bioavailability analysis of a new formulation using waste-based microencapsulation as a valuable source of bioactive compounds” (Pharmacological Reports, 2025).

Set-up: method as in PMID 25200135
Details: hesperidin micronization (5.1 μm)

Q: For COc1ccc([C@@H]2CC(=O)c3c(O)cc(O[C@@H]4O[C@H](CO[C@@H]5O[C@@H](C)[C@H](O)[C@@H](O)[C@H]5O)[C@@H](O)[C@H](O)[C@H]4O)cc3O2)cc1O [hesperidin], which “Increase of flavanone's bioavailability compared to conventional hesperidin (32.8 μm)” value is on record?
A: 2 fold
